Measurements from the supplement of paper PMC13380429.

What was measured:
Details in all cases: 72 h
[1] = system: Calu-3; test: drug sensitivity score (DSS) for viability; higher = more toxic; extreme values may be limits of the assay
[2] = system: U2OS; test: as above
[3] = system: HepG2; test: as above
[4] = system: Vero E6; test: as above
[5] = system: Caco-2; test: as above
[6] = system: Calu-3; test: cell viability relative to DMSO; higher = less toxic
[7] = system: U2OS; test: as above
[8] = system: HepG2; test: as above
[9] = system: Vero E6; test: as above
[10] = system: Caco-2; test: as above
[11] = system: Calu-3; test: relative viability EC50 (midpoint between 100% and the lowest measured viability); higher = less toxic
[12] = system: U2OS; test: as above
[13] = system: HepG2; test: as above
[14] = system: Vero E6; test: as above
[15] = system: Caco-2; test: as above

Row | SMILES | drug sensitivity score [1] | drug sensitivity score [2] | drug sensitivity score [3] | drug sensitivity score [4] | drug sensitivity score [5] | cell viability ([6]; 1 nM) | cell viability ([6]; 10 nM) | cell viability ([6]; 100 nM) | cell viability ([6]; 1000 nM) | cell viability ([6]; 10000 nM) | cell viability ([7]; 1 nM) | cell viability ([7]; 10 nM) | cell viability ([7]; 100 nM) | cell viability ([7]; 1000 nM) | cell viability ([7]; 10000 nM) | cell viability ([8]; 1 nM) | cell viability ([8]; 10 nM) | cell viability ([8]; 100 nM) | cell viability ([8]; 1000 nM) | cell viability ([8]; 10000 nM) | cell viability ([9]; 1 nM) | cell viability ([9]; 10 nM) | cell viability ([9]; 100 nM) | cell viability ([9]; 1000 nM) | cell viability ([9]; 10000 nM) | cell viability ([10]; 1 nM) | cell viability ([10]; 10 nM) | cell viability ([10]; 100 nM) | cell viability ([10]; 1000 nM) | cell viability ([10]; 10000 nM) | relative viability EC50 [11] | relative viability EC50 [12] | relative viability EC50 [13] | relative viability EC50 [14] | relative viability EC50 [15]
1 | NC(=O)c1cn([C@@H]2O[C@H](CO)[C@@H](O)[C@H]2O)c2ncnc(N)c2c1=O [API-1] | 10.6 | 5.9 | 13.6 | 4 | 5.6 | 97% | 107% | 87.5% | 52.7% | 20.7% | 95.7% | 98.8% | 91.1% | 97.5% | 0.9% | 106% | 97.9% | 84.9% | 39% | 4.5% | 97% | 89.7% | 94.8% | 93% | 47.3% | 92.3% | 92.9% | 85% | 80.1% | 36.4% | 0.639 µM | 2.98 µM | 0.544 µM | 2.1 µM | 1.53 µM
2 | N[C@@H]1CCCN(c2c(/C=C3\SC(=O)NC3=O)cccc2-c2ccccc2)C1 [AZD1208] | 0 | 0 | 1.2 | 0 | 0 | 105% | 94.4% | 92.4% | 86.6% | 99.8% | 97.1% | 88.9% | 93.3% | 95.6% | 96.7% | 92.6% | 104% | 93.5% | 89.8% | 80% | 98.3% | 99.9% | 87.9% | 91.8% | 96.2% | 103% | 97.5% | 109% | 95.3% | 98.6% | > 10 µM | > 10 µM | > 10 µM | > 10 µM | > 10 µM
3 | NCC(=O)O [AZD4282] | 0 | 0 | 0 | 0 | 0 | 86.3% | 101% | 96.3% | 102% | 97.3% | 93.7% | 96.7% | 100% | 98.9% | 102% | 95.3% | 96% | 96.6% | 102% | 101% | 102% | 103% | 99.3% | 104% | 100% | 99% | 104% | 86.4% | 99.7% | 103% | > 10 µM | > 10 µM | > 10 µM | > 10 µM | > 10 µM
